Measurements from the supplement of paper PMC7244745.
Structures can show the parent of a compound that is named as a salt. ± gives the uncertainty stated by the source.

What was measured:
[1] = system: Klebsiella pneumoniae ATCC 13882; assay: onset of ureolytic pH increase; higher = more delayed ureolysis (inhibition)
Experimental: (§1)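 Klebsiella pneumoniae ATCC 13882 (start OD600 0.05) grown in M9U medium with 40 mM urea and phenol red plus inhibitor, in triplicate in 96-well plates. A557 and OD630 were read every 15 min for 24 h. Ureolysis was followed as the pH-related A557-A630: onset time, Gompertz-fit rate and final value. Growth was followed as OD630.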

[2] = system: Klebsiella pneumoniae ATCC 13882; assay: rate of pH (A557-A630) increase, Gompertz fit (10^-4 s-1); higher = faster ureolysis; extreme values may be limits of the assay
Experimental: as §1

[3] = system: Klebsiella pneumoniae ATCC 13882; assay: final pH-related absorbance (A557-A630) after 24 h (absorbance units); higher = more ureolysis; extreme values may be limits of the assay
Experimental: as §1

[4] = system: Klebsiella pneumoniae ATCC 13882; assay: final OD630 (growth) after 24 h; higher = more bacterial growth; extreme values may be limits of the assay
Experimental: as §1

SMILES	onset of ureolytic pH increase ([1]; 0.1 mM)	onset of ureolytic pH increase ([1]; 1 mM)	onset of ureolytic pH increase ([1]; 10 mM)	rate of pH ([2]; 0.1 mM)	rate of pH ([2]; 1 mM)	rate of pH ([2]; 10 mM)	final pH-related absorbance ([3]; 0.1 mM)	final pH-related absorbance ([3]; 1 mM)	final pH-related absorbance ([3]; 10 mM)	final OD630 ([4]; 0.1 mM)	final OD630 ([4]; 1 mM)	final OD630 ([4]; 10 mM)	further results
CC(=NO)C(C)=NO [Dimethylglyoxime]	–	–	–	–	–	–	–	–	–	–	–	–	onset of ureolytic pH increase ([1]; 0.03 mM): 573.9 ± 0.72 min; onset of ureolytic pH increase ([1]; 0.3 mM): 771 ± 36 min; onset of ureolytic pH increase ([1]; 3.01 mM): 0 min; rate of pH ([2]; 0.03 mM): 2.093 ± 0.018; rate of pH ([2]; 0.3 mM): 1.96 ± 0.3; rate of pH ([2]; 3.01 mM): 0.0904 ± 0.0046; final pH-related absorbance ([3]; 0.03 mM): 0.183 ± 0.0026; final pH-related absorbance ([3]; 0.3 mM): 0.142 ± 0.032; final pH-related absorbance ([3]; 3.01 mM): 0.466 ± 0.023; final OD630 ([4]; 0.03 mM): 0.443 ± 0.007; final OD630 ([4]; 0.3 mM): 0.377 ± 0.017; final OD630 ([4]; 3.01 mM): 0
C=C(CC)C(=O)c1ccc(OCC(=O)O)c(Cl)c1Cl [Ethacrynic acid]	697.4 ± 3.6 min	754 ± 100 min	0 min	1.57 ± 0.073	1.49 ± 0.037	0.033 ± 0.0006	0.139 ± 0.0023	0.128 ± 0.018	0.294 ± 0.0059	0.437 ± 0.0002	0.44 ± 0.0048	0	–
CC(O)(P(=O)(O)O)P(=O)(O)O [Etidronic acid monohydrate]	673.9 ± 2.3 min	672.1 ± 2.5 min	> 900 min	1.63 ± 0.035	1.597 ± 0.013	0	0.323 ± 0.0087	0.28 ± 0.005	0	0.432 ± 0.0054	0.443 ± 0.0026	0	–
NC=O [Formamide]	550 ± 22 min	560 ± 15 min	572 ± 7.5 min	2.01 ± 0.1	2.24 ± 0.1	2.188 ± 0.02	0.168 ± 0.021	0.172 ± 0.027	0.165 ± 0.021	0.513 ± 0.0092	0.512 ± 0.0096	0.513 ± 0.008	–
O=C(O)c1cc(O)c(O)c(O)c1 [Gallic acid monohydrate]	–	–	–	–	–	–	–	–	–	–	–	–	onset of ureolytic pH increase ([1]; 0.056 mM): 562.9 ± 3.7 min; onset of ureolytic pH increase ([1]; 0.56 mM): 617 ± 18 min; rate of pH ([2]; 0.056 mM): 2.0688 ± 0.0018; rate of pH ([2]; 0.56 mM): 1.8 ± 0.028; final pH-related absorbance ([3]; 0.056 mM): 0.19 ± 0.0003; final pH-related absorbance ([3]; 0.56 mM): 0.191 ± 0.028; final OD630 ([4]; 0.056 mM): 0.454 ± 0.007; final OD630 ([4]; 0.56 mM): 0.45 ± 0.003
N=C(N)N [Guanidine hydrochloride]	433 ± 6.4 min	425 ± 5.7 min	436 ± 12 min	1.94 ± 0.086	2.02 ± 0.066	2.03 ± 0.17	0.249 ± 0.007	0.27 ± 0.011	0.286 ± 0.009	0.498 ± 0.006	0.505 ± 0.006	0.503 ± 0.004	–
Oc1ccc(O)cc1 [Hydroquinone]	680 ± 7.1 min	704 ± 40 min	–	1.78 ± 0.19	1.58 ± 0.096	–	0.155 ± 0.0064	0.157 ± 0.0044	–	0.408 ± 0.021	0.423 ± 0.038	–	–
NC(=O)NO [Hydroxyurea]	436 ± 6.5 min	442 ± 25 min	> 900 min	1.89 ± 0.32	1.01 ± 0.031	0	0.258 ± 0.007	0.198 ± 0.029	0	0.483 ± 0.006	0.452 ± 0.031	0.262 ± 0.002	–
c1c[nH]cn1 [Imidazole]	562.8 ± 3.5 min	565 ± 7.1 min	619.4 ± 3.2 min	1.457 ± 0.0067	1.48 ± 0.046	1.43 ± 0.029	0.163 ± 0.0003	0.164 ± 0.0067	0.169 ± 0.0015	0.423 ± 0.0002	0.42 ± 0.0034	0.439 ± 0.0039	–
O=C(O)CNCC(=O)O [Iminodiacetic acid]	–	–	–	–	–	–	–	–	–	–	–	–	onset of ureolytic pH increase ([1]; 0.008 mM): 565.5 ± 3.2 min; onset of ureolytic pH increase ([1]; 0.08 mM): 562.6 ± 1.5 min; onset of ureolytic pH increase ([1]; 0.802 mM): 663 ± 19 min; rate of pH ([2]; 0.008 mM): 2.086 ± 0.011; rate of pH ([2]; 0.08 mM): 2.13 ± 0.052; rate of pH ([2]; 0.802 mM): 1.82 ± 0.045; final pH-related absorbance ([3]; 0.008 mM): 0.184 ± 0.004; final pH-related absorbance ([3]; 0.08 mM): 0.211 ± 0.017; final pH-related absorbance ([3]; 0.802 mM): 0.209 ± 0.007; final OD630 ([4]; 0.008 mM): 0.44 ± 0.003; final OD630 ([4]; 0.08 mM): 0.429 ± 0.003; final OD630 ([4]; 0.802 mM): 0.373 ± 0.011
N=C(N)NCCC[C@H](N)C(=O)O [L-arginine]	–	–	–	–	–	–	–	–	–	–	–	–	onset of ureolytic pH increase ([1]; 0.094 mM): 636.03 ± 0.24 min; onset of ureolytic pH increase ([1]; 0.943 mM): 558.6 ± 4.4 min; onset of ureolytic pH increase ([1]; 9.43 mM): 592.5 ± 2.5 min; rate of pH ([2]; 0.094 mM): 1.72 ± 0.018; rate of pH ([2]; 0.943 mM): 1.69 ± 0.018; rate of pH ([2]; 9.43 mM): 1.66 ± 0.021; final pH-related absorbance ([3]; 0.094 mM): 0.23 ± 0.0075; final pH-related absorbance ([3]; 0.943 mM): 0.238 ± 0.0024; final pH-related absorbance ([3]; 9.43 mM): 0.307 ± 0.0066; final OD630 ([4]; 0.094 mM): 0.472 ± 0.003; final OD630 ([4]; 0.943 mM): 0.52 ± 0.0037; final OD630 ([4]; 9.43 mM): 0.519 ± 0.0064
